Measurements reported in patent US20220324835A1 (Nurix Therapeutics, Inc., priority 2018, published 2022).

What was measured:
T-cell [1] = assay: CD25 cell surface staining on T-cells co-stimulated with anti-CD3 and anti-CD28 antibody (Biological Example 2); assay type: cell-based, human; details: for CD25 staining, Anti-CD3/Anti-CD28 stimulation, fold change over baseline: baseline = anti-CD3/anti-CD28 stimulated cells without inhibitor; for fold induction at 0.3 µM / fold induction at 1 µM / fold induction at 4 µM: Homo sapiens, T-cell, read-out: CD25 staining Anti-CD3/Anti-CD28 stimulation; for fold induction at 0.3 µM: 0.3 μM Cbl-b inhibitor; for fold induction at 1 µM: 1 μM Cbl-b inhibitor; for fold induction at 4 µM: 4 μM Cbl-b inhibitor
Excerpt: (§1) Methods for experimentally determining increased T-cell activation, increased T-cell proliferation, decreased T-cell exhaustion, and/or decreased T-cell tolerance are well known in the art.
(§2) Modulation of activity of an immune cell, such as a T-cell, a B cell or a NK cell can be measured by determining a baseline value for a parameter of interest (e.g., cytokine secretion). […] A reference value then is obtained for T-cell activation after contacting or administering said Cbl-b inhibitor. The reference value is compared to the baseline value in order to determine the amount of T-cell activation due to contact or administration of the Cbl-b inhibitor or composition thereof. […] Immune cell activation can be assessed by measuring biological markers of activation such as increased cytokine secretion, increased cell surface expression of activation markers (e.g., cell surface markers), or increased phosphorylation of proteins in a downstream signaling pathway. The fold over baseline value that indicates immune cell activation can be determined for the parameter being tested and the conditions under which the immune cell were treated. For example, for measuring T-cell activation, a baseline value can be obtained from T-cells stimulated with anti-CD3 antibody in combination with anti-CD28 antibody, wherein the cells are not incubated with a Cbl-b inhibitor. […] A positive response for immune cell activation can then be determined by the obtained reference value. […]

Cbl-b [2] = target: T1, Cbl-b (Homo sapiens, UniProt Q13191); assay: Cbl-b inhibition assay (Cbl-b activity assay, FRET, Biological Example 1; 100 mM NaCl, 60 nM Src kinase); assay type: biochemical; details: upper bound stated in text lists; read-out: IC50 values in the Cbl-b inhibition assay of Biological Example 1
T1 sequence (Q13191 36-427): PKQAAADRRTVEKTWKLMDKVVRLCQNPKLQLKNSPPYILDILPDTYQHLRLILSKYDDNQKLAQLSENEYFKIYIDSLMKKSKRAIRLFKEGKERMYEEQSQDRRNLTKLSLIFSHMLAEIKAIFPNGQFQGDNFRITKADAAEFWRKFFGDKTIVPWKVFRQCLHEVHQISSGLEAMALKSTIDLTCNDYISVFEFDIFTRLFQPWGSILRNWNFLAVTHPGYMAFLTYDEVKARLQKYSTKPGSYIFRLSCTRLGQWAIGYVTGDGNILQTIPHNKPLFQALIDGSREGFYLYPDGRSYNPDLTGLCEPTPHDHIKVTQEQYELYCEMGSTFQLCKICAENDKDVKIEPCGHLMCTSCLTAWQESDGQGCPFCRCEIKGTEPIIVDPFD
Outline: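 TR-FRET assay using N-terminal biotinylated Avi-tagged Cbl-b bound to streptavidin-terbium, Src kinase for Cbl-b phosphorylation, and UbcH5B irreversibly conjugated to Bodipy-Fluorescein-ubiquitin. Phosphorylated Cbl-b binds UbcH5B-Ub, bringing the fluorophores together; inhibition is read as loss of FRET signal.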

T-cell [3] = assay: CD25 cell surface staining on T-cells stimulated with anti-CD3 antibody alone (Biological Example 2); assay type: cell-based, human; details: for CD25 staining, Anti-CD3 stimulation, fold change over baseline: baseline = anti-CD3/anti-CD28 stimulated cells without inhibitor; for fold induction at 1 µM / fold induction at 8 µM: T-cell, read-out: CD25 staining Anti-CD3 stimulation; for fold induction at 1 µM: 1 μM Cbl-b inhibitor; for fold induction at 8 µM: 8 μM Cbl-b inhibitor
Excerpt: as §1
(§3) Modulation of activity of an immune cell, such as a T-cell, a B cell or a NK cell can be measured by determining a baseline value for a parameter of interest (e.g., cytokine secretion). […] A reference value then is obtained for T-cell activation after contacting or administering said Cbl-b inhibitor. The reference value is compared to the baseline value in order to determine the amount of T-cell activation due to contact or administration of the Cbl-b inhibitor or composition thereof. […] Immune cell activation can be assessed by measuring biological markers of activation such as increased cytokine secretion, increased cell surface expression of activation markers (e.g., cell surface markers), or increased phosphorylation of proteins in a downstream signaling pathway. The fold over baseline value that indicates immune cell activation can be determined for the parameter being tested and the conditions under which the immune cell were treated. For example, for measuring T-cell activation, a baseline value can be obtained from T-cells stimulated with anti-CD3 antibody in combination with anti-CD28 antibody, wherein the cells are not incubated with a Cbl-b inhibitor. […] A positive response for immune cell activation can then be determined by the obtained reference value.
(§4) In some embodiments, a baseline value can be obtained from T-cells stimulated with anti-CD3 antibody alone, wherein the cells are not incubated with a Cbl-b inhibitor. In some embodiments, a positive response for T-cell activation as measured by cytokine secretion (e.g., IL-2 secretion) by T-cells stimulated with anti-CD3 antibody alone in the presence of a Cbl-b inhibitor is at least 0.1-fold over the baseline value for cytokine secretion (e.g., IL-2 secretion) obtained from T-cells stimulated with anti-CD3 antibody alone in the absence of a Cbl-b inhibitor. In some embodiments, a positive response for T-cell activation as measured by surface marker expression (e.g., CD25 surface marker staining) by T-cells stimulated with anti-CD3 antibody alone in the presence of a Cbl-b inhibitor is at least 0.6-fold over the baseline value for surface marker expression (e.g., CD25 surface marker staining) obtained from T-cells stimulated with anti-CD3 antibody alone in the absence of a Cbl-b inhibitor.

T-cell [4] = assay: IL-2 secretion from T-cells stimulated with anti-CD3 antibody alone (Biological Example 2); assay type: cell-based, human; details: for fold induction at 1 µM / fold induction at 8 µM: T-cell, read-out: IL-2 secretion Anti-CD3 stimulation; for fold induction at 1 µM: 1 μM Cbl-b inhibitor; for fold induction at 8 µM: 8 μM Cbl-b inhibitor
Excerpt: as §1, §3, §4

Cbl-b [5] = target: T1, Cbl-b; assay: Cbl-b activity assay (Cbl-b inhibition assay), TR-FRET of Cbl-b interaction with UbcH5B-Ub; assay type: biochemical
Outline: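 Compound-treated Cbl-b was incubated 1.5 h with Src kinase (60 nM final; 30 nM for asterisked values, which also used 50 mM instead of 100 mM NaCl), 1 mM ATP and 5 mM MgCl2. Binding to fluorescent Ub-loaded UbcH5B (C85K mutant) was then read by TR-FRET after 1 h more.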

T-cell [6] = assay: IL-2 secretion from T-cells co-stimulated with anti-CD3 and anti-CD28 antibody (Biological Example 2); assay type: cell-based, human; details: for IL-2 secretion, Anti-CD3/Anti-CD28 stimulation, fold change over baseline: baseline = anti-CD3/anti-CD28 stimulated cells without inhibitor; for fold induction at 0.3 µM / fold induction at 1 µM / fold induction at 4 µM: Homo sapiens, T-cell, read-out: IL-2 secretion Anti-CD3/Anti-CD28 stimulation; for fold induction at 0.3 µM: 0.3 μM Cbl-b inhibitor; for fold induction at 1 µM: 1 μM Cbl-b inhibitor; for fold induction at 4 µM: 4 μM Cbl-b inhibitor
Excerpt: as §1, §2

[7] = 0.3 μM compound, primary human total T-cells
[8] = 1 μM compound, primary human total T-cells
[9] = 4 μM compound, primary human total T-cells
[10] = 8 μM compound, primary human total T-cells
[11] = assay buffer with 100 mM NaCl, 60 nM Src kinase, read-out: Cbl-b activity IC50
[12] = fold change over baseline (anti-CD3/anti-CD28 stimulated T-cells without inhibitor)
[13] = Homo sapiens, fold change over baseline (anti-CD3/anti-CD28 stimulated T-cells without inhibitor)
[14] = fold change over baseline, primary human total T-cells
[15] = * assay buffer containing 50 mM NaCl instead of 100 mM NaCl and 30 nM Src kinase instead of 60 nM, read-out: Cbl-b activity IC50 (μM)*

Compound | IC50 (Cbl-b [2]) | IC50 (Cbl-b [5]; [11]) | fold induction at 0.3 µM (T-cell [1]; [14]) | fold induction at 1 µM (T-cell [1]; [14]) | fold induction at 4 µM (T-cell [1]; [14]) | fold induction at 1 µM (T-cell [3]; [14]) | fold induction at 8 µM (T-cell [3]; [14]) | fold induction at 1 µM (T-cell [4]; [14]) | fold induction at 8 µM (T-cell [4]; [14]) | IC50 (Cbl-b [5]; [15]) | fold induction at 0.3 µM (T-cell [6]; [14]) | fold induction at 1 µM (T-cell [6]; [14]) | fold induction at 4 µM (T-cell [6]; [14]) | further results
Cn1cnnc1[C@@H](F)[C@](C)(F)c1cccc(N2Cc3c(cccc3C(F)(F)F)C2=O)c1 (stereo in doubt) [Compound 480, 2-(3-((1R,2R)-1,2-difluoro-1-(4-methyl-4H-1,2,4-triazol-3-yl)propan-2-yl)phenyl)-4-(trifluoromethyl)isoindolin-1-one] | ≤ 300 nM | 0.1 to 0.3 µM | – | – | – | – | – | – | – | – | – | – | – | CD25 staining, Anti-CD3/Anti-CD28 stimulation, fold change over baseline (T-cell [1]; [7]): D (D indicates 1.01-1.30 fold); CD25 staining, Anti-CD3/Anti-CD28 stimulation, fold change over baseline (T-cell [1]; [8]): D (D indicates 1.01-1.30 fold); CD25 staining, Anti-CD3/Anti-CD28 stimulation, fold change over baseline (T-cell [1]; [9]): D (D indicates 1.01-1.30 fold); CD25 staining, Anti-CD3 stimulation, fold change over baseline (T-cell [3]; [8]): D (D indicates ≤0.600 fold); CD25 staining, Anti-CD3 stimulation, fold change over baseline (T-cell [3]; [10]): C (C indicates 0.601<0.800 fold); IL-2 secretion, Anti-CD3 stimulation, fold change over baseline (T-cell [4]; [8]): E (E indicates ≤0.050 fold); IL-2 secretion, Anti-CD3 stimulation, fold change over baseline (T-cell [4]; [10]): D (D indicates 0.051-0.1 fold); IL-2 secretion, Anti-CD3/Anti-CD28 stimulation, fold change over baseline (T-cell [6]; [7]): D (D indicates 1.01-2.50 fold); IL-2 secretion, Anti-CD3/Anti-CD28 stimulation, fold change over baseline (T-cell [6]; [8]): D (D indicates 1.01-2.50 fold); IL-2 secretion, Anti-CD3/Anti-CD28 stimulation, fold change over baseline (T-cell [6]; [9]): D (D indicates 1.01-2.50 fold)
CC(c1cc(C(=O)Nc2cccc(C3(Cc4nncn4C)COC3)c2)nc(C2CC2)n1)N1CCC2(CC2)C1 (stereo in doubt) [Example 592a, (R)-6-(1-(5-azaspiro[2.4]heptan-5-yl)ethyl)-2-cyclopropyl-N-(3-(3-((4-methyl-4H-1,2,4-triazol-3-yl)methyl)oxetan-3-yl)phenyl)pyrimidine-4-carboxamide] | ≤ 100 nM | < 0.1 µM | – | – | – | – | – | – | – | – | – | – | – | fold induction at 0.3 µM (T-cell [1]; [12]): 1.01 to 1.3; fold induction at 1 µM (T-cell [1]; [12]): 1.01 to 1.3; fold induction at 1 µM (T-cell [3]; [13]): > 1; fold induction at 1 µM (T-cell [4]; [13]): > 0.201; fold induction at 0.3 µM (T-cell [6]; [12]): 5 to 7.5; fold induction at 1 µM (T-cell [6]; [12]): > 7.5
COc1cccc(C(=O)Nc2cccc([C@H](C)Sc3nncn3C)c2)n1 [Compound 38, (S)-6-Methoxy-N-(3-(1-((4-methyl-4H-1,2,4-triazol-3-yl)thio)ethyl)phenyl)picolinamide] | ≤ 1000 nM | 0.301 to 1 µM | < 1 | < 1 | 1.31 to 1.5 | < 0.6 | 0.601 to 0.8 | 0.101 to 0.15 | 0.151 to 0.2 | 0.301 to 1 µM | 1.01 to 2.5 | 1.01 to 2.5 | 2.51 to 5 | –
Cc1nc(C(=O)Nc2cccc([C@H](C)Sc3nncn3C)c2)ccc1Cl [Compound 39, (S)-5-Chloro-6-methyl-N-(3-(1-((4-methyl-4H-1,2,4-triazol-3-yl)thio)ethyl)phenyl)picolinamide] | ≤ 500 nM | 0.1 to 0.3 µM | < 1 | 1.01 to 1.3 | 1.01 to 1.3 | < 0.6 | 0.801 to 1 | < 0.05 | 0.051 to 0.1 | 0.301 to 1 µM | 2.51 to 5 | 5 to 7.5 | > 7.5 | –
